The results in this text go back to US7388003B2, “Δ15-D-Homosteroids with androgenic action” (Bayer Schering Pharma AG, priority 2003, dated 2008).

The structures appear in SMILES notation.

For assay [1], the target named is T1, Androgen Receptor (Homo sapiens, UniProt P10275).
T1 sequence (P10275 1-920): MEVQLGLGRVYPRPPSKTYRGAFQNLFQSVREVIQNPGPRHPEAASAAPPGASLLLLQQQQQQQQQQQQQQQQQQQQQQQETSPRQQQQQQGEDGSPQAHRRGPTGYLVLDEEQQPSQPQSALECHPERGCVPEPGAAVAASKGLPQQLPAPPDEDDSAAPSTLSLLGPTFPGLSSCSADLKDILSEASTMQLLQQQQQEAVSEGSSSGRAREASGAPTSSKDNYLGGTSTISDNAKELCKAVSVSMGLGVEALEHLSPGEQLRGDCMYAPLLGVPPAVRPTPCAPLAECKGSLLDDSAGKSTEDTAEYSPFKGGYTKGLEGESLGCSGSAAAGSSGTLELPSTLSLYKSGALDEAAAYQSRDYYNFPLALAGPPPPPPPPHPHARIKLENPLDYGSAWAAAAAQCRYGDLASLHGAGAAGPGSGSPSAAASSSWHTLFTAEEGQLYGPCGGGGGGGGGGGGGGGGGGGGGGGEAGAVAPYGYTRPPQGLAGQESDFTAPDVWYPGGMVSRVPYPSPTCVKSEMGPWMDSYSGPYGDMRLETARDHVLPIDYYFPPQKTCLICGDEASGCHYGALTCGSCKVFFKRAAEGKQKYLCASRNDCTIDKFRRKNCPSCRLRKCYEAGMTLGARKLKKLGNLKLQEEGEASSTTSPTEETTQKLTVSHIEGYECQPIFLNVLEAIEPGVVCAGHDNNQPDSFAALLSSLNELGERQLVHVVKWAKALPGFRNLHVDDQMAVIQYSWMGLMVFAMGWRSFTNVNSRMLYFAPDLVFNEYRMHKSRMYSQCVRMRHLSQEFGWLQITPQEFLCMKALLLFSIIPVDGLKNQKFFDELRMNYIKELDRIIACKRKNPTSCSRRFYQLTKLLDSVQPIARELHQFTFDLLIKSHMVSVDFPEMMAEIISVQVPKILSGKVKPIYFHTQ
As to the kind of experiment: Receptor binding affinity to the androgen receptor (reference DHT=100%).

Assay [2] concerns the target T1, Androgen Receptor. Kind of assay: Relative binding affinities (RBA) to the androgen receptor compared to testosterone and methyltrienolone. The settings on record: relative binding affinity to the androgen receptor; R 1881 (Methyltrienolone) = 100.

With `CC1CC2=CC(=O)CCC2C2CCC3(C)C(O)C=CCC3C12` [17aβ-Hydroxy-7α-methyl-D-homoestra-4,16-dien-3-one], the “receptor binding affinity to the androgen receptor” value at Androgen Receptor [1] was determined as 2%.

In the case of `CC12CCC3C4CCC(=O)C=C4CCC3C1C=CCC2O` [Example 1, 17aβ-Hydroxy-D-homoestra-4,15-dien-3-one], the RBA % at Androgen Receptor [2] turned out to be 25%.

Take `CC12CCC(=O)C=C1CCC1C2CCC2(C)C(O)CC=CC12` [Example 2, 17aβ-Hydroxy-D-homoandrost-4,15-dien-3-one]: on Androgen Receptor [2], the RBA % is 12%.

For `C[C@]1(O)CC[C@H]2[C@@H]3CCC4=CC(=O)CCC4=C3C=C[C@@]21C` [R 1881 (Methyltrienolone), Methyltrienolone], the RBA % at Androgen Receptor [2] came to 100%.
